Our source for the IC50 values is BindingDB's records for patent US20230348442 (Idorsia Pharmaceuticals, 2023).

pIC50: −log10 of the molar value.

Assay [1] concerns the target Galectin-3 (Homo sapiens, UniProt P17931). Briefly: Biological Assay. How it is done:
(§1) The inhibitory activity of compounds is determined in competitive binding assays. This spectrophotometric assay measures the binding of biotinylated human Gal-3 (hGal-3) or human Gal-1 (hGal-1), respectively, to a microplate-adsorbed glycoprotein, asialofetuin (ASF) (Proc Natl Acad Sci USA. 2013 Mar. 26; 110(13):5052-7.). Alternatively, and preferably, a human Gal-1 version in which all six cysteines are substituted by serines may be used. Briefly, compounds are serially diluted in DMSO (working dilutions). ASF-coated 384 well plates are supplemented with 22.8 μL/well of biotinylated hGal-3 or hGal-1 in assay buffer (i.e. 300-1000 ng/mL biotinylated hGal-3 or hGal-1) to which 1.2 μL of compound working dilutions are added and mixed. Plates are incubated for 3 hours at 4° C., then washed with cold assay buffer (3×50 uL), incubated for 1 hour with 25 μL/well of a streptavidin-peroxidase solution (diluted in assay buffer to 80 ng/mL) at 4° C., followed by further washing steps with assay buffer (3×50 uL). Finally, 25 μL/well of ABTS substrate is added.

The target of assay [2] is Galectin-1 (Homo sapiens, UniProt P09382). Description: Biological Assay. How it is done:
as §1

Galectin-3, sequence (P17931 whole entry): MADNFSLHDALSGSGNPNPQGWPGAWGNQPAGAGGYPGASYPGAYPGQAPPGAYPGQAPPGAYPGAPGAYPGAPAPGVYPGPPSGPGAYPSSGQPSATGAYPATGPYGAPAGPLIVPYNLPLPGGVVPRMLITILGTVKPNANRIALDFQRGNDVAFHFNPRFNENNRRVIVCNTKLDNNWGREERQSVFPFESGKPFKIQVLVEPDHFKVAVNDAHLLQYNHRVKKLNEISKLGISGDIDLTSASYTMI
Galectin-1, sequence (P09382 whole entry): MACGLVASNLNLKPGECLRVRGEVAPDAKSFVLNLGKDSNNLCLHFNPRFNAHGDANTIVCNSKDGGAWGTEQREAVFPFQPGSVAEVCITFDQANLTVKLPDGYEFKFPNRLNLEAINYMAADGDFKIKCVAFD

Turning to `CO[C@@H]1[C@@H](n2cc(-c3cc(F)c(Br)c(F)c3)nn2)[C@@H](O)[C@@H](CO)O[C@H]1C(=O)N(c1cc(Br)cc(C#N)c1)[C@H]1CCC[C@@H]1O` [US20230348442, Example 1.6.5], in assay [1], the negative logarithm of the IC50 (pIC50) – broadly, −log10 of the IC50, conventionally taken in molar units – is 7.59.

As to `CO[C@@H]1[C@@H](n2cc(-c3cc(F)cc(Br)c3)nn2)[C@@H](O)[C@@H](CO)O[C@H]1C(=O)N(c1cc(Br)cc(C#N)c1)[C@H]1CCC[C@@H]1O` [US20230348442, Example 1.10.5], the pIC50 in assay [1] is 7.16.

On to `O=C([C@@H]1O[C@H](CO)[C@H](O)[C@H](n2cc(-c3cc(F)c(F)c(F)c3)nn2)[C@H]1O)N(c1cc(Cl)cc(Cl)c1)[C@H]1CCC[C@@H]1O` [US20230348442, Example 1H.1.2], for which the values for the pIC50 in assay [2] and in assay [1] were 5.68 and 7.53, respectively.

For the compound `N#Cc1cc(Cl)cc(N(C(=O)[C@@H]2O[C@H](CO)[C@H](O)[C@H](n3cc(-c4cc(F)c(Cl)c(F)c4)nn3)[C@H]2O)[C@H]2CCC[C@@H]2O)c1` [US20230348442, Example 1H.5.4], in assay [1], the pIC50 is 7.70.

In the case of `CO[C@@H]1[C@@H](n2cc(-c3cc(F)c(F)c(F)c3)nn2)[C@@H](O)[C@@H](CO)O[C@H]1C(=O)N(c1cc(C)cc(Br)c1)[C@H]1CC[C@@H]1O` [US20230348442, Example 2.1.12], in assay [1], the pIC50 is 6.95.
